The results in this text go back to patent US8729091B2, “4-phenoxy-nicotinamide or 4-phenoxy-pyrimidine-5-carboxamide compounds” (Hoffmann-La Roche Inc., priority 2010, dated 2014).

The structures appear in SMILES notation.

The target of this test is T1, human GPBAR1 receptor (Homo sapiens, UniProt Q8TDU6).
T1 construct: expressed in transfected cells
T1 sequence (Q8TDU6 1-330): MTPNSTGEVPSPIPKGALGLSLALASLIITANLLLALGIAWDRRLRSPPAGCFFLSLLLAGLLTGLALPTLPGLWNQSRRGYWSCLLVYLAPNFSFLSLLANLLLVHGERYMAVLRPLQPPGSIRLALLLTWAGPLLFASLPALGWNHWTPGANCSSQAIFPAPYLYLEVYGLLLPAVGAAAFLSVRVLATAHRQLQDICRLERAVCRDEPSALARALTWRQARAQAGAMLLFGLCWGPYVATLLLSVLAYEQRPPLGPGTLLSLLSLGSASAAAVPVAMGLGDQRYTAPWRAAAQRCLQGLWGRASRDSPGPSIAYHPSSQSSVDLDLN
In words: functional cAMP assay in CHO-dhfr(minus) cells expressing human GPBAR1 receptors. In kind it is cell-based. Conditions: cAMP increase (TR-FRET) in CHO-dhfr(minus) cells expressing human GPBAR1; compounds incubated 30 min at 30° C. As for the experimental part: The final clone was verified by DNA sequence analysis. The plasmid was transfected into CHO cells deficient in dihydrofolate reductase activity (CHO-dhfr−) using Lipofectamine plus (Invitrogen). Clones were isolated in limited dilution conditions and identified by activities in the cAMP assay using lithocholic acid as agonist.
The growth medium was exchanged with Krebs Ringer Bicarbonate buffer with 1 mM IBMX and incubated at 30° C. for 30 min. Compounds were added to a final assay volume of 100 μl and incubated for 30 min at 30° C. […] The time-resolved energy transfer is measured by a TRF reader (Evotec Technologies GmbH, Hamburg Germany), equipped with a ND:YAG laser as excitation source.
EC50 values were determined using Activity Base analysis (ID Business Solution, Limited). […] Specificity for GPBAR1 was tested in non-transfected CHO cells in the same assay as above.
`O=C(c1cnccc1Oc1cc(Cl)ccc1Cl)N1CCCc2cc(F)c(F)cc21` [Example 2, [4-(2,5-Dichloro-phenoxy)-pyridin-3-yl]-(6,7-difluoro-3,4-dihydro-2H-quinolin-1-yl)-methanone] displayed an EC50 of 100 nM.

Compound `O=C(c1cnccc1Oc1cc(Cl)ccc1Cl)N1CCNc2ccccc21` [Example 3, [4-(2,5-Dichloro-phenoxy)-pyridin-3-yl]-(3,4-dihydro-2H-quinoxalin-1-yl)-methanone] registered a 50% effective concentration (EC50) of 100 nM.

Regarding `CN1CCN(C(=O)c2cnccc2Oc2cc(Cl)ccc2Cl)c2ccccc21` [Example 4, [4-(2,5-Dichloro-phenoxy)-pyridin-3-yl]-(4-methyl-3,4-dihydro-2H-quinoxalin-1-yl)-methanone], the EC50 amounted to 3 nM.

Take `CCOC(=O)C1CC1CN1CCN(C(=O)c2cnccc2Oc2cc(Cl)ccc2Cl)c2ccccc21` (stereo not drawn) [Example 5, 2-{4-[4-(2,5-Dichloro-phenoxy)-pyridine-3-carbonyl]-3,4-dihydro-2H-quinoxalin-1-ylmethyl}-cyclopropanecarboxylic acid ethyl ester]: the half-maximal effective concentration (EC50) turned out to be 1800 nM.

With `O=C(c1cnccc1Oc1cc(Cl)ccc1Cl)N1CCN(CC2CC2)c2ccccc21` [Example 6, (4-Cyclopropylmethyl-3,4-dihydro-2H-quinoxalin-1-yl)-[4-(2,5-dichloro-phenoxy)-pyridin-3-yl]-methanone], the concentration for a half-maximal effect (EC50) is 3 nM.

In the case of `CS(=O)(=O)N1CCN(C(=O)c2cnccc2Oc2cc(Cl)ccc2Cl)c2ccccc21` [Example 7, [4-(2,5-Dichloro-phenoxy)-pyridin-3-yl]-(4-methanesulfonyl-3,4-dihydro-2H-quinoxalin-1-yl)-methanone], a half-maximal effect (EC50) was put at 300 nM.

Compound `O=C(c1cnccc1Oc1cc(Cl)ccc1Cl)N1CCN(C2CC2)c2cc(Cl)c(F)cc21` [Example 9, (6-Chloro-4-cyclopropyl-7-fluoro-3,4-dihydro-2H-quinoxalin-1-yl)-[4-(2,5-dichloro-phenoxy)-pyridin-3-yl]-methanone] returned an EC50 of 50 nM.

For the compound `O=C(c1c[n+]([O-])ccc1Oc1cc(Cl)ccc1Cl)N1CCCc2ccccc21` [Example 10, [4-(2,5-Dichloro-phenoxy)-1-oxy-pyridin-3-yl]-(3,4-dihydro-2H-quinolin-1-yl)-methanone], it took 700 nM to reach a half-maximal effect (EC50).

Regarding `O=C(c1cnccc1Oc1cc(Cl)ccc1Cl)N1CCN(C2CC2)c2cc(Cl)ccc21` [Example 11, (6-Chloro-4-cyclopropyl-3,4-dihydro-2H-quinoxalin-1-yl)-[4-(2,5-dichloro-phenoxy)-pyridin-3-yl]-methanone], a half-maximal response (EC50) required 10 nM.

As to `COc1ccc(F)cc1N(C)C(=O)c1cnccc1Oc1cc(Cl)ccc1Cl` [Example 12, 4-(2,5-Dichloro-phenoxy)-N-(5-fluoro-2-methoxy-phenyl)-N-methyl-nicotinamide], a half-maximal response (EC50) required 100 nM.

Take `Cc1ccccc1N(C)C(=O)c1cnccc1Oc1cc(Cl)ccc1Cl` [Example 13, 4-(2,5-Dichloro-phenoxy)-N-methyl-N-o-tolyl-nicotinamide]: it took 200 nM to reach a half-maximal effect (EC50).

Compound `COc1ccccc1N(C)C(=O)c1cnccc1Oc1cc(Cl)ccc1Cl` [Example 14, 4-(2,5-Dichloro-phenoxy)-N-(2-methoxy-phenyl)-N-methyl-nicotinamide] displayed an EC50 of 100 nM.

Consider `COc1ncccc1N(C)C(=O)c1cnccc1Oc1cc(Cl)ccc1Cl` [Example 15, 4-(2,5-Dichloro-phenoxy)-N-(2-methoxy-pyridin-3-yl)-N-methyl-nicotinamide], for which the EC50 turned out to be 100 nM.

In the case of `CN(C)c1ccccc1N(C)C(=O)c1cnccc1Oc1cc(Cl)ccc1Cl` [Example 16, 4-(2,5-Dichloro-phenoxy)-N-(2-dimethylamino-phenyl)-N-methyl-nicotinamide], a half-maximal effect (EC50) was put at 40 nM.

`CN(C(=O)c1cnccc1Oc1cc(Cl)ccc1Cl)c1ccccc1N1CCCCC1` [Example 17, 4-(2,5-Dichloro-phenoxy)-N-methyl-N-(2-piperidin-1-yl-phenyl)-nicotinamide] came in with an EC50 of 1900 nM.
